Measurements published in patent US20120041062A1, “COMPOUND OF SALVIANOLIC ACID L, PREPARATION METHOD AND USE THEREOF” (Tianjin Tasly Pharmaceutical Co., Ltd., priority 2009, published 2012).

Columns and labels:
H2O2-damaged PC12 cell [1] = assay: Cell survival rate of H2O2-damaged PC12 cell (MTT method); format: cell-based; details: pre-treated 6 hours, 0.5 mM H2O2 1 hour
Method: (§1) a. MTT was added into 96-well microplate with 20 μl in each well, and reacted for 4 hours in incubator.
(§2) b. The supernatant was discarded, followed by addition of 150 μl DMSO in each well and shaken on flat shaking-table for 10 min.
(§3) c. Absorbance of each well was measured by ELISA reader at wavelength of 570 nm to calculate cell survival rate.
(§4) Cell survival rate %=(OD value of drug administration group/OD value of negative control group)×100%
(§5) a. PC12 cells at, exponential growth phase in good condition were washed with PBS twice, followed by addition of 0.25% trypsin digestive solution to perform digestion at 37° C. for about 1 min. This reaction was ended by addition of blood serum-contained culture medium, centrifuged and resuspended, then counted the cells to prepare a suspension with a cell density of 2×10^4−4×10^4 cells/ml.
(§6) b. The resulting cell suspension was inoculated into 96-well microplate with 180 μl in each well (n=3) and incubated in constant temperature CO2 incubator at 37° C. for 24 hours.
c. Grouping and treatments: there were 4 groups: blank control group (PBS), solvent control group (DMSO), model group (H2O2) and positive control group (Edaravone).
Positive control group: Edaravone (2 μg/ml) is added as a positive drug and then pre-treated for 6 hours, into which 0.5 mM hydrogen peroxide was added to damage for 1 hour and replaced with freshly-prepared DMEM+10%FBS culture medium, 200 μl per well.
(§7) d. The cell activity was determined by MTT method.
as §5, with “at” for “at,”
(§8) c. Grouping and treatments: there were 5 groups: blank control group (PBS), solvent control group (DMSO or ethyl acetate), model group (H2O2), positive control group (Edaravone) and drug treatment group.
(§9) Model group: 0.5 mM hydrogen peroxide (H2O2) was used to treat for 1 hour.
(§10) Positive control group: Edaravone (2 μg/ml ), used as a positive drug, was added to cell and pre-treated for 6 hours, into which 0.5 mM hydrogen peroxide was added to damage for 1 hour and replaced with freshly-prepared DMEM+10%FBS culture medium.
(§11) Drug treatment group: after the cell was inoculated into culture microplate, different tested drugs at different concentration were added firstly and pre-treated for 6 hours with 20 μl per well, into which 0.5 mM H2O2 was added to damage for 1 hour, and then replaced with freshly-prepared DMEM+10%FBS culture medium.
e. The activity of cell in cell microplate was determined by MTT method.

H2O2-damaged PC12 cell [2] = assay: LDH activity of H2O2-damaged PC12 cell; format: cell-based; details: pre-treated 6 hours, 0.5 mM H2O2 1 hour, supernatant
Method: (§12) The experiment of determination was carried out according to the Specification of LDH test kit provided by Nanjing Jiangcheng Bioengineering Institute.
(§13) LDH activity (U/L)=(ODU−ODC)/(ODS−ODB)×CS×N×1 000
(§14) Wherein, ODU represented the absorbance of the tested sample, ODC represented the absorbance of control sample, ODB represented the absorbance of blank, ODS represented the absorbance of standard solution, CS represented the standard concentration of 2 mmol/L, N represented the dilution multiple of sample before determination.
as §5, with “at” for “at,”
as §6, §8, §9, §10, §11
d. The supernatant was collected, 20 μl per well, for determination of LDH activity.

[3] = tested on: PC12 cell of oxygen-glucose deprivation; assay: Cell survival rate of PC12 cell of oxygen-glucose deprivation (MTT method); format: cell-based; details: pre-treated 6 hours
Method: as §1, §2, §3, §4
as §5, with “at” for “at,”
as §6
c. Grouping and treatments: there were 3 groups: blank control group (normoxia+0.1% DMS0), model group (OGD+0.1% DMSO, oxygen-glucose deprivation) and positive control group (Edaravone).
Model group: the cell in culture microplate was cultured with glucose-free DMEM medium, which was placed in a hypoxic chamber, started to record time for 0.5 hour when O2% was less than 2.6, and then transferred to a routine incubator. The determination was carried out after a period of time of incubation.
Positive control group: Edaravone (2 μg/ml) was used as a positive drug. Drug was added and pre-treated for 6 hours, and then replaced with glucose-free medium, 180 μl per well. The drug was added again, placed in a hypoxic chamber, started to record time for 0.5 hour when O2% was less than 2.6, and then transferred to a routine incubator. The determination was carried out after a period of time of incubation.
as §7
(§15) c. Grouping and treatments: there were 4 groups: blank control group (normoxia+0.1% DMSO), model group (OGD+DMSO, oxygen-glucose deprivation), positive control group (Edaravone) and the drug treatment group.
(§16) Model group: the culture medium for the cells in microplate was changed to glucose-free DMEM, placed in a hypoxic chamber, and started to record time for 0.5 hour when O2% was less than 2.6, and then transferred to a routine incubator to culture overnight.
(§17) Positive control group: Edaravone (2 μg/ml ) was used as a positive drug. Drug was added and pre-treated for 6 hours, and then the culture medium was replaced with glucose-free DMEM medium, 180 μl per well. The drug was added again, placed in a hypoxic chamber, started to record time for 0.5 hour when 02% was less than 2.6, and then transferred to a routine incubator to culture overnight.
(§18) Drug treatment group: the drug at different concentrations was added and pre-treated for 6 hours, the culture medium was changed to glucose-free DMEM medium, 180 μl per well. The drug was added again, placed in a hypoxic chamber, started to record time for 0.5 hour when O2% was less than 2.6, and then transferred to a routine incubator to culture overnight.
e. The activity of cell was determined by MTT method.

[4] = tested on: PC12 cell of oxygen-glucose deprivation (OGD); assay: LDH activity of PC12 cell of oxygen-glucose deprivation (OGD); format: cell-based; details: pre-treated 6 hours, OGD 0.5 hour, cultured overnight, supernatant
Method: as §12, §13, §14
as §5, with “at” for “at,”
as §6, §15, §16, §17, §18
d. Resulting supernatant was collected the next day with 20 μl per well, which was used for determination of LDH activity.

[5] = DPPH free-radical scavenging reaction; format: biochemical; details: for DPPH free-radical scavenging rate: 20 min, 25° C., 517 nm
Method: In this study, 1,1-diphenyl-2-picryl-hydrazyl (DPPH) free-radical scavenging reaction model has been used to observe the free-radical scavenging activity of the salvianolic acid L. The total reaction volume was 2 ml. 1 ml of the sample solutions at different concentrations in 80% methanol (v/v) were added into 100 μM of DPPH methanol solution, mixed uniformly to allow the solution to react for 20 min at 25° C. in the dark. Absorbance of the reaction solution was measured at 517 nm. In this study, vitamin C was regarded as a positive control. Free-radical scavenging rate was calculated in accordance with the following equation: Free-radical scavenging rate (%)=[1−Asample/Acontrol)/Acontrol]×100% Wherein, the Asample means the absorbance of the tested samples, and Acontrol means the absorbance of blank control.

[6] = Determination of reducing capacity (potassium ferricyanide / ferric chloride, absorbance at 700 nm); format: biochemical; details: FIG. 10; in words, compared with vitamin C
Method: 0.5 ml of 200 mM phosphate buffer (pH6.8) containing different concentrations of the salvianolic acid L and 1.0% potassium ferricyanide solution were sucked respectively and cooled on an ice bath after being heated on a water bath (50° C.) for 20 min. 0.5 ml of trichloroacetic acid solution (10%) was added and centrifuged at […] for 10 min. 1.0 ml of the resulting supernatant was taken, into which 1.0 ml of distilled water and 0.2 ml of ferric chloride solution (0.1%) were added, stood still for 10 min and the absorbance was measured at 700 nm. Meanwhile, the blank experiment was carried out. Vitamin C is a strongly reducing substance, acting as positive control in this study. Reducing capacity of the sample is represented by subtracting the absorbance of the blank control from the absorbance of the tested sample. Thus, it means the higher absorbance, the stronger reducing capacity.

[7] = final concentration 0.02 μg/ml, OGD 0.5 hour, cultured overnight
[8] = final concentration 0.2 μg/ml, OGD 0.5 hour, cultured overnight
[9] = final concentration 2 μg/ml, OGD 0.5 hour, cultured overnight

SMILES: CC1=NN(c2ccccc2)C(=O)C1 [Edaravone]
- Survival rate (%) (H2O2-damaged PC12 cell [1]; establishment of hydrogen peroxide-damaged model, 2 μg/ml): 53.54 ± 3.66 %
- Survival rate (%) (H2O2-damaged PC12 cell [1]; final concentration 0.02 μg/ml): 47.6 ± 2 %
- Survival rate (%) (H2O2-damaged PC12 cell [1]; final concentration 0.2 μg/ml): 44.2 ± 6.11%
- Survival rate (%) (H2O2-damaged PC12 cell [1]; final concentration 2 μg/ml): 58.18 ± 2.64 %
- LDH activity (U/L) (H2O2-damaged PC12 cell [2]; final concentration 0.02 μg/ml): 532.44 ± 11.55 U/L
- LDH activity (U/L) (H2O2-damaged PC12 cell [2]; final concentration 0.2 μg/ml): 568.23 ± 11.55 U/L
- LDH activity (U/L) (H2O2-damaged PC12 cell [2]; final concentration 2 μg/ml): 523.49 ± 5.17 U/L
- Survival rate (%) ([3]; establishment of oxygen-glucose deprivation model, 2 μg/ml): 48.50 ± 1.81 %
- Survival rate (%) [3, 7]: 44.75 ± 1.02 %
- Survival rate (%) [3, 8]: 36.37 ± 2.52 %
- Survival rate (%) [3, 9]: 39.99 ± 0.55 %
- LDH activity (U/L) ([4]; final concentration 0.02 μg/ml): 40.27 ± 5.17 U/L
- LDH activity (U/L) ([4]; final concentration 0.2 μg/ml): 22.37 ± 5.17 U/L
- LDH activity (U/L) ([4]; final concentration 2 μg/ml): 31.32 ± 5.17 U/L

SMILES: O=C1O[C@H]([C@@H](O)CO)C(O)=C1O [Vitamin C]
- DPPH free-radical scavenging rate ([5]; sample 0.314 μg/ml): 3.42 ± 0.42%
- DPPH free-radical scavenging rate ([5]; sample 0.625 μg/ml): 7.06 ± 1.88%
- DPPH free-radical scavenging rate ([5]; sample 1.25 μg/ml): 13.82 ± 1.83%
- DPPH free-radical scavenging rate ([5]; sample 2.5 μg/ml): 29.39 ± 5.92%
- DPPH free-radical scavenging rate ([5]; sample 5 μg/ml): 55.34 ± 7.21%

SMILES: O=C(/C=C/c1ccc(O)c(O)c1/C(=C/c1ccc(O)c(O)c1)C(=O)O)OC(Cc1ccc(O)c(O)c1)C(=O)O (centres unmarked) [salvianolic acid L]
- DPPH free-radical scavenging rate (in words) ([5]; compared with vitamin C, Table 3 and FIG. 9): much higher free-radical scavenging rate than that of the vitamin C
- DPPH free-radical scavenging rate ([5]; sample 0.314 μg/ml): 5.41 ± 0.74%
- DPPH free-radical scavenging rate ([5]; sample 0.625 μg/ml): 12.95 ± 2.42%
- DPPH free-radical scavenging rate ([5]; sample 1.25 μg/ml): 25.21 ± 1.82%
- DPPH free-radical scavenging rate ([5]; sample 2.5 μg/ml): 44.19 ± 3.70%
- DPPH free-radical scavenging rate ([5]; sample 5 μg/ml): 83.17 ± 4.12%
- reducing capacity (absorbance at 700 nm minus blank) [6]: much stronger than that of vitamin C
- Survival rate (%) (H2O2-damaged PC12 cell [1]; final concentration 0.02 μg/ml): 47.2 ± 0.8 %
- Survival rate (%) (H2O2-damaged PC12 cell [1]; final concentration 0.2 μg/ml): 44.89 ± 0.48%
- Survival rate (%) (H2O2-damaged PC12 cell [1]; final concentration 2 μg/ml): 48.34 ± 0.25%
- LDH activity (U/L) (H2O2-damaged PC12 cell [2]; final concentration 0.02 μg/ml): 550.336 ± 25.83 U/L
- LDH activity (U/L) (H2O2-damaged PC12 cell [2]; final concentration 0.2 μg/ml): 474.27 ± 71.96 U/L
- LDH activity (U/L) (H2O2-damaged PC12 cell [2]; final concentration 2 μg/ml): 487.70 ± 72.51 U/L
- Survival rate (%) [3, 7]: 47.74 ± 1.72 %
- Survival rate (%) [3, 8]: 36.68 ± 2.72 %
- Survival rate (%) [3, 9]: 35.96 ± 1.44%
- LDH activity (U/L) ([4]; final concentration 0.02 μg/ml): 53.69 ± 29.23 U/L
- LDH activity (U/L) ([4]; final concentration 0.2 μg/ml): 31.32 ± 11.55 U/L
- LDH activity (U/L) ([4]; final concentration 2 μg/ml): 40.27 ± 5.17 U/L
